Measured values reported in the kinase profiling compilation of Christmann-Franck et al. (2016).

Columns and labels:
Test in all cases: KINOMEscan competition binding
Conditions in all cases: compound 10.0 µM
MAPK9 (human) = MAPK9 (human) (UniProt P45984)
TAOK1 (human) = TAOK1 (human) (UniProt Q7L7X3)
NEK6 (human) = NEK6 (human) (UniProt Q9HC98)
TSSK1B (human) = TSSK1B (human) (UniProt Q9BXA7)
MYLK2 (human) = MYLK2 (human) (UniProt Q9H1R3)
PIM1 (human) = PIM1 (human) (UniProt P11309)
PAK2 (human) = PAK2 (human) (UniProt Q13177)
INSRR (human) = INSRR (human) (UniProt P14616)
PKN3 (M.tuberculosis) = PKN3 (M.tuberculosis) (UniProt Q6P5Z2)
CASK (human) = CASK (human) (UniProt O14936)
MST1R (human) = MST1R (human) (UniProt Q04912)
MET (human) = MET (human) (UniProt P08581)
[1] = system: KIT (human), P10721 [L576P]
[2] = target: JAK1 JH1 catalytic (human) (UniProt P23458)
AAK1 (human) = AAK1 (human) (UniProt Q2M2I8)
CDK18 (human) = CDK18 (human) (UniProt Q07002)
NEK3 (human) = NEK3 (human) (UniProt P51956)
BTK (human) = BTK (human) (UniProt Q06187)
PIM2 (human) = PIM2 (human) (UniProt Q9P1W9)
PLK4 (human) = PLK4 (human) (UniProt O00444)
MAPK3 (human) = MAPK3 (human) (UniProt P27361)
RIPK2 (human) = RIPK2 (human) (UniProt O43353)
CSNK1G1 (human) = CSNK1G1 (human) (UniProt Q9HCP0)
PAK7 (human) = PAK7 (human) (UniProt Q9P286)
MAP3K7 (human) = MAP3K7 (human) (UniProt O43318)
ROCK1 (human) = ROCK1 (human) (UniProt Q13464)
FLT3 (human) = FLT3 (human) (UniProt P36888)
FYN (human) = FYN (human) (UniProt P06241)
TRPM6 (human) = TRPM6 (human) (UniProt Q9BX84)
STK35 (human) = STK35 (human) (UniProt Q8TDR2)
DYRK1A (human) = DYRK1A (human) (UniProt Q13627)
ROCK2 (human) = ROCK2 (human) (UniProt O75116)
GSK3B (human) = GSK3B (human) (UniProt P49841)
MAP3K11 (human) = MAP3K11 (human) (UniProt Q16584)
WEE1 (human) = WEE1 (human) (UniProt P30291)
EPHB3 (human) = EPHB3 (human) (UniProt P54753)
EIF2AK2 (human) = EIF2AK2 (human) (UniProt P19525)
STK32B (human) = STK32B (human) (UniProt Q9NY57)
DSTYK (human) = DSTYK (human) (UniProt Q6XUX3)
RIPK1 (human) = RIPK1 (human) (UniProt Q13546)

PLK4 (human), sequence (O00444 whole entry, looked up): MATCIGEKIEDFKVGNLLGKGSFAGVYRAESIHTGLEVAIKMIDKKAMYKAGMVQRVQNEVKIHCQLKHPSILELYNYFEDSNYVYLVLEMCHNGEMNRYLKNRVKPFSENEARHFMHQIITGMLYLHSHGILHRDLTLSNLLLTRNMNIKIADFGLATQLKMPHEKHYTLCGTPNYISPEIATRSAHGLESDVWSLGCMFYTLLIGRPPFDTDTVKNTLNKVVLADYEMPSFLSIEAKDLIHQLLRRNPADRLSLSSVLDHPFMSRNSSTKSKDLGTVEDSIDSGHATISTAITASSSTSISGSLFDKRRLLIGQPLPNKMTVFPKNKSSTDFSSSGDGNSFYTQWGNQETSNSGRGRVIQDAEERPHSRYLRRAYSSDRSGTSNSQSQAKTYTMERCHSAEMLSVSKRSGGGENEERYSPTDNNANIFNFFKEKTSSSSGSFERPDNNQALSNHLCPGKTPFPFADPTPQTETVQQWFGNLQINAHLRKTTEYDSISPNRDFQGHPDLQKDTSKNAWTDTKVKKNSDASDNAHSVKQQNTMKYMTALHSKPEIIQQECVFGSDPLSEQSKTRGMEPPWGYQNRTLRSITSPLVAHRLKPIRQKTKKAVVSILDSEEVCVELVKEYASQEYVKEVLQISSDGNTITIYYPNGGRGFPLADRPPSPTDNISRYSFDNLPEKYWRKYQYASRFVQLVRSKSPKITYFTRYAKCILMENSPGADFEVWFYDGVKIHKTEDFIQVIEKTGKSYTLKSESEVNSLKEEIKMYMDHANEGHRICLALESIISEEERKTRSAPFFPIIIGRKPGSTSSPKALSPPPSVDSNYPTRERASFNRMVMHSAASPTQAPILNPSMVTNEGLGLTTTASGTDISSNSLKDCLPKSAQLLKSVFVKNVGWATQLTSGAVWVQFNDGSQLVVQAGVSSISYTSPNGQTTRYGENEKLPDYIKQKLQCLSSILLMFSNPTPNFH
FYN (human), sequence (P06241 whole entry, looked up): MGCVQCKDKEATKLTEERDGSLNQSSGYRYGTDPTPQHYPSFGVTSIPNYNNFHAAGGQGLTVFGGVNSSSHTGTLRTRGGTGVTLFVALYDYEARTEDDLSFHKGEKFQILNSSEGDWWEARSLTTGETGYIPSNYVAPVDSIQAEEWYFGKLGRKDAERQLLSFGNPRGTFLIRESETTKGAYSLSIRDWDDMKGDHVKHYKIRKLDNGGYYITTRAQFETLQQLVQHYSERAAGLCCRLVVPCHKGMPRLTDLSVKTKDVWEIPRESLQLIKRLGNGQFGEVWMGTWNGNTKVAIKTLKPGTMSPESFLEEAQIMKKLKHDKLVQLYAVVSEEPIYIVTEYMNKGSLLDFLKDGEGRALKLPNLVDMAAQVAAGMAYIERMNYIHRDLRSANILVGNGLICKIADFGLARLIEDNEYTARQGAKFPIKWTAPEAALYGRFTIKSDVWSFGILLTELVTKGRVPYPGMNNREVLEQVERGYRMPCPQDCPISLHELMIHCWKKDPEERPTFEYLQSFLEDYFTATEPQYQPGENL
CDK18 (human), sequence (Q07002 whole entry, looked up): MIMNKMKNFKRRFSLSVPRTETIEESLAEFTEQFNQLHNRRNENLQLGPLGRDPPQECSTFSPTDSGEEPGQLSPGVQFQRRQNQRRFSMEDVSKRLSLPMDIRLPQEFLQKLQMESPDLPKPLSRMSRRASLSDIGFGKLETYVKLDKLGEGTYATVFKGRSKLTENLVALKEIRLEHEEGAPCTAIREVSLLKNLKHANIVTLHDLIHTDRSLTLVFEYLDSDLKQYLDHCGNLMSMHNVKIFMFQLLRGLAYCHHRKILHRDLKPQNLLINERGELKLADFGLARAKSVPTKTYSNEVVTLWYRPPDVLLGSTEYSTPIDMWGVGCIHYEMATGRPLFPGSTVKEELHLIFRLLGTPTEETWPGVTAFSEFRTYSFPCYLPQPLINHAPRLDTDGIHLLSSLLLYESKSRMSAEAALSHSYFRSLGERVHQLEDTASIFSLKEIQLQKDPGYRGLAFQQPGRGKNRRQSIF
CSNK1G1 (human), sequence (Q9HCP0 whole entry, looked up): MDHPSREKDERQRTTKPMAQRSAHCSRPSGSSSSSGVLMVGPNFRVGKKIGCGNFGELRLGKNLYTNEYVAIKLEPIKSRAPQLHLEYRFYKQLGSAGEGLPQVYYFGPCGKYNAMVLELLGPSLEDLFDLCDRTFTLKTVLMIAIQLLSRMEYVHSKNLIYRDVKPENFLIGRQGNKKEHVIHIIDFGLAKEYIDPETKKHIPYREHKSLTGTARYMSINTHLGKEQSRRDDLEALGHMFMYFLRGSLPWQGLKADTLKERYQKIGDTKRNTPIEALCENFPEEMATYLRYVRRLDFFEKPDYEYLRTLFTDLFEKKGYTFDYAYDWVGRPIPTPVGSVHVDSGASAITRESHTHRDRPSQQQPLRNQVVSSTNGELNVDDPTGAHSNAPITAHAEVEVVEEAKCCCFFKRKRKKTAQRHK
NEK6 (human), sequence (Q9HC98 whole entry, looked up): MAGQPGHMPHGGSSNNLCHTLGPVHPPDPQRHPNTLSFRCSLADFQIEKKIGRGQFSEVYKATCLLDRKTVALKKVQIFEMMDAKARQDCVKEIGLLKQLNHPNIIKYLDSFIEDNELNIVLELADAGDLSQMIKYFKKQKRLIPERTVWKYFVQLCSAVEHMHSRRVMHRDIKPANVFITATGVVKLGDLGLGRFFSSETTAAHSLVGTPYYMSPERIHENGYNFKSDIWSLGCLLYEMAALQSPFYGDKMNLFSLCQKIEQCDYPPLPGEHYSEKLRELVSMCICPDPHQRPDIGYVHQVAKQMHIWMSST
TRPM6 (human), sequence (Q9BX84 whole entry, looked up): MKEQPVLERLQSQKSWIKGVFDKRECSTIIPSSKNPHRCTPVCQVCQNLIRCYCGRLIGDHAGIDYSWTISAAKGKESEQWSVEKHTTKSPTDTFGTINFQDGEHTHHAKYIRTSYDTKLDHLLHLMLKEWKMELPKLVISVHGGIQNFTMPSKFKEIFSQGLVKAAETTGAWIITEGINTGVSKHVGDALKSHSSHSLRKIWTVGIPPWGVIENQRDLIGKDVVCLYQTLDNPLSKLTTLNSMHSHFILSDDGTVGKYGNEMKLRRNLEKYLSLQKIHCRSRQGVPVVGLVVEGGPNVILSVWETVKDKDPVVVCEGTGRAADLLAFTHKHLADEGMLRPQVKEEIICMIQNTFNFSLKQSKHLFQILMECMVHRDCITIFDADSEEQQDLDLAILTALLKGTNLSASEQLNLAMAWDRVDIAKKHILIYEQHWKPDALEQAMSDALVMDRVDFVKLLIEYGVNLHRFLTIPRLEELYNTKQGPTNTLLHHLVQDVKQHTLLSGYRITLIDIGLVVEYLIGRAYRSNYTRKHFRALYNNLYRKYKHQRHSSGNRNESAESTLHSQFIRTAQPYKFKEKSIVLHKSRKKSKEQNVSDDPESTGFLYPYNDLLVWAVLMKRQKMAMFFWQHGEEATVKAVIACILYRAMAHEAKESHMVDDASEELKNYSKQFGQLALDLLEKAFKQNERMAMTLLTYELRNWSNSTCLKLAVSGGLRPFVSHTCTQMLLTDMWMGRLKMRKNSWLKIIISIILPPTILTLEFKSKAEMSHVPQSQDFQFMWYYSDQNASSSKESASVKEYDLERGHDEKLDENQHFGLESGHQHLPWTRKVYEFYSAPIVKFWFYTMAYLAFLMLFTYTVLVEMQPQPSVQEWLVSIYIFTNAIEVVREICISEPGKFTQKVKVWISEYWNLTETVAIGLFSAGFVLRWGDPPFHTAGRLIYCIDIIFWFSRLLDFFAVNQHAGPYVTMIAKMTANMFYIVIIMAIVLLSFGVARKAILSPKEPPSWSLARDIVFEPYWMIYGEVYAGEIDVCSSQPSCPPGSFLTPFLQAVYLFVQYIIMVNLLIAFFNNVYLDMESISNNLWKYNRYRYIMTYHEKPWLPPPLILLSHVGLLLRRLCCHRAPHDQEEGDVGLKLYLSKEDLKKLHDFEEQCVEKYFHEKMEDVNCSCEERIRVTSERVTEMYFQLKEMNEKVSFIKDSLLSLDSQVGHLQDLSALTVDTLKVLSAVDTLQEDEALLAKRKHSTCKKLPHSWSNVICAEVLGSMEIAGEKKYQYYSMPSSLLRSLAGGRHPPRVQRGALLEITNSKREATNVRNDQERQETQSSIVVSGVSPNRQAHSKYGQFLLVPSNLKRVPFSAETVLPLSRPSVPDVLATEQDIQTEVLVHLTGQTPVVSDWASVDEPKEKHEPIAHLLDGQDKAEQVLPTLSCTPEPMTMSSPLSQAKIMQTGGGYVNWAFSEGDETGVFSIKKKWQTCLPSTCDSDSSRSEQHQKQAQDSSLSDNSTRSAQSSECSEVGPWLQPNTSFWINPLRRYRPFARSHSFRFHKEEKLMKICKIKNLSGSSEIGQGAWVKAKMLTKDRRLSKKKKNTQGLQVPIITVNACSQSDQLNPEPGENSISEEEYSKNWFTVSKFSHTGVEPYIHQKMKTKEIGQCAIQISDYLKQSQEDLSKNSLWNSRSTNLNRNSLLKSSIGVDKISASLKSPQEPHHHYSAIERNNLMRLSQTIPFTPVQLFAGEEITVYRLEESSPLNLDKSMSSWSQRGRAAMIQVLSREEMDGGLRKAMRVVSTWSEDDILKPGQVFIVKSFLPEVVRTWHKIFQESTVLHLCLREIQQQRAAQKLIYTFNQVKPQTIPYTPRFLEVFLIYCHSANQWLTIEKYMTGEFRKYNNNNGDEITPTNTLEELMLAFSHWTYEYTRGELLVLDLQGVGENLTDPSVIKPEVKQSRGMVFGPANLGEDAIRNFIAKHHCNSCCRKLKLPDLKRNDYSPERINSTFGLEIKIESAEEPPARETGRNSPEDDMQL
PIM1 (human), sequence (P11309 whole entry, looked up): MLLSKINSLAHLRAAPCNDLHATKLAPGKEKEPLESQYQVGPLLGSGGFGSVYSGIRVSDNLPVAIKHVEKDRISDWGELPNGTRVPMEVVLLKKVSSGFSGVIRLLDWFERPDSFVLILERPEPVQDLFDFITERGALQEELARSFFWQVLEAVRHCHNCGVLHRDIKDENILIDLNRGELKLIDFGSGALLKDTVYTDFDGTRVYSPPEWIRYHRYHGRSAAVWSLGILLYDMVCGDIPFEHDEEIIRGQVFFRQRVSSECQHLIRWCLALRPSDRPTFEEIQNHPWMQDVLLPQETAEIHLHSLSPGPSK

COc1ccc(N(C(=O)Oc2c(C)cccc2C)c2ccnc(Nc3ccc(N4CCN(C)CC4)cc3)n2)c(OC)c1
kinase still bound, per cent of control (MAPK9 (human)): 2.6%
kinase still bound, per cent of control (TAOK1 (human)): 11%
kinase still bound, per cent of control (NEK6 (human)): 96%
kinase still bound, per cent of control (TSSK1B (human)): 87%
kinase still bound, per cent of control (MYLK2 (human)): 0.95%
kinase still bound, per cent of control (PIM1 (human)): 100%
kinase still bound, per cent of control (PAK2 (human)): 58%
kinase still bound, per cent of control (INSRR (human)): 100%
kinase still bound, per cent of control (PKN3 (M.tuberculosis)): 90%
kinase still bound, per cent of control (CASK (human)): 90%
kinase still bound, per cent of control (MST1R (human)): 16%
kinase still bound, per cent of control (MET (human)): 3.9%
kinase still bound, per cent of control [1]: 1%
kinase still bound, per cent of control [2]: 36%
kinase still bound, per cent of control (AAK1 (human)): 13%
kinase still bound, per cent of control (CDK18 (human)): 100%
kinase still bound, per cent of control (NEK3 (human)): 100%
kinase still bound, per cent of control (BTK (human)): 1.3%
kinase still bound, per cent of control (PIM2 (human)): 100%
kinase still bound, per cent of control (PLK4 (human)): 37%
kinase still bound, per cent of control (MAPK3 (human)): 100%
kinase still bound, per cent of control (RIPK2 (human)): 0%
kinase still bound, per cent of control (CSNK1G1 (human)): 95%
kinase still bound, per cent of control (PAK7 (human)): 82%
kinase still bound, per cent of control (MAP3K7 (human)): 57%
kinase still bound, per cent of control (ROCK1 (human)): 65%
kinase still bound, per cent of control (FLT3 (human)): 2.3%
kinase still bound, per cent of control (FYN (human)): 0%
kinase still bound, per cent of control (TRPM6 (human)): 100%
kinase still bound, per cent of control (STK35 (human)): 24%
kinase still bound, per cent of control (DYRK1A (human)): 75%
kinase still bound, per cent of control (ROCK2 (human)): 88%
kinase still bound, per cent of control (GSK3B (human)): 72%
kinase still bound, per cent of control (MAP3K11 (human)): 8.8%
kinase still bound, per cent of control (WEE1 (human)): 85%
kinase still bound, per cent of control (EPHB3 (human)): 0%
kinase still bound, per cent of control (EIF2AK2 (human)): 92%
kinase still bound, per cent of control (STK32B (human)): 1.1%
kinase still bound, per cent of control (DSTYK (human)): 49%
kinase still bound, per cent of control (RIPK1 (human)): 63%

COc1cc2ncnc(-n3nc(-c4ccccn4)nc3N)c2cc1OC
kinase still bound, per cent of control (MAPK9 (human)): 1.5%
kinase still bound, per cent of control (TAOK1 (human)): 3.2%
kinase still bound, per cent of control (NEK6 (human)): 0.15%
kinase still bound, per cent of control (TSSK1B (human)): 60%
kinase still bound, per cent of control (MYLK2 (human)): 61%
kinase still bound, per cent of control (PIM1 (human)): 15%
kinase still bound, per cent of control (PAK2 (human)): 37%
kinase still bound, per cent of control (INSRR (human)): 100%
kinase still bound, per cent of control (PKN3 (M.tuberculosis)): 7.1%
kinase still bound, per cent of control (CASK (human)): 26%
kinase still bound, per cent of control (MST1R (human)): 100%
kinase still bound, per cent of control (MET (human)): 55%
kinase still bound, per cent of control [1]: 4.5%
kinase still bound, per cent of control [2]: 100%
kinase still bound, per cent of control (AAK1 (human)): 6.9%
kinase still bound, per cent of control (CDK18 (human)): 62%
kinase still bound, per cent of control (NEK3 (human)): 87%
kinase still bound, per cent of control (BTK (human)): 51%
kinase still bound, per cent of control (PIM2 (human)): 78%
kinase still bound, per cent of control (PLK4 (human)): 0.2%
kinase still bound, per cent of control (MAPK3 (human)): 67%
kinase still bound, per cent of control (RIPK2 (human)): 2.6%
kinase still bound, per cent of control (CSNK1G1 (human)): 33%
kinase still bound, per cent of control (PAK7 (human)): 63%
kinase still bound, per cent of control (MAP3K7 (human)): 15%
kinase still bound, per cent of control (ROCK1 (human)): 21%
kinase still bound, per cent of control (FLT3 (human)): 20%
kinase still bound, per cent of control (FYN (human)): 25%
kinase still bound, per cent of control (TRPM6 (human)): 61%
kinase still bound, per cent of control (STK35 (human)): 24%
kinase still bound, per cent of control (DYRK1A (human)): 0.1%
kinase still bound, per cent of control (ROCK2 (human)): 20%
kinase still bound, per cent of control (GSK3B (human)): 100%
kinase still bound, per cent of control (MAP3K11 (human)): 63%
kinase still bound, per cent of control (WEE1 (human)): 80%
kinase still bound, per cent of control (EPHB3 (human)): 56%
kinase still bound, per cent of control (EIF2AK2 (human)): 21%
kinase still bound, per cent of control (STK32B (human)): 100%
kinase still bound, per cent of control (DSTYK (human)): 19%
kinase still bound, per cent of control (RIPK1 (human)): 86%

CCN1CCN(C(=O)Cc2ccc(Nc3ncc(F)c(Nc4ccc(C(=O)Nc5ccccc5Cl)cc4)n3)cc2)CC1
kinase still bound, per cent of control (MAPK9 (human)): 0.75%
kinase still bound, per cent of control (TAOK1 (human)): 62%
kinase still bound, per cent of control (NEK6 (human)): 8.4%
kinase still bound, per cent of control (TSSK1B (human)): 100%
kinase still bound, per cent of control (MYLK2 (human)): 66%
kinase still bound, per cent of control (PIM1 (human)): 60%
kinase still bound, per cent of control (PAK2 (human)): 56%
kinase still bound, per cent of control (INSRR (human)): 63%
kinase still bound, per cent of control (PKN3 (M.tuberculosis)): 5%
kinase still bound, per cent of control (CASK (human)): 82%
kinase still bound, per cent of control (MST1R (human)): 100%
kinase still bound, per cent of control (MET (human)): 8.6%
kinase still bound, per cent of control [1]: 3.2%
kinase still bound, per cent of control [2]: 6.9%
kinase still bound, per cent of control (AAK1 (human)): 7%
kinase still bound, per cent of control (CDK18 (human)): 43%
kinase still bound, per cent of control (NEK3 (human)): 60%
kinase still bound, per cent of control (BTK (human)): 27%
kinase still bound, per cent of control (PIM2 (human)): 100%
kinase still bound, per cent of control (PLK4 (human)): 0.25%
kinase still bound, per cent of control (MAPK3 (human)): 100%
kinase still bound, per cent of control (RIPK2 (human)): 19%
kinase still bound, per cent of control (CSNK1G1 (human)): 100%
kinase still bound, per cent of control (PAK7 (human)): 56%
kinase still bound, per cent of control (MAP3K7 (human)): 2.9%
kinase still bound, per cent of control (ROCK1 (human)): 81%
kinase still bound, per cent of control (FLT3 (human)): 0.7%
kinase still bound, per cent of control (FYN (human)): 41%
kinase still bound, per cent of control (TRPM6 (human)): 96%
kinase still bound, per cent of control (STK35 (human)): 91%
kinase still bound, per cent of control (DYRK1A (human)): 47%
kinase still bound, per cent of control (ROCK2 (human)): 75%
kinase still bound, per cent of control (GSK3B (human)): 61%
kinase still bound, per cent of control (MAP3K11 (human)): 4.6%
kinase still bound, per cent of control (WEE1 (human)): 31%
kinase still bound, per cent of control (EPHB3 (human)): 78%
kinase still bound, per cent of control (EIF2AK2 (human)): 15%
kinase still bound, per cent of control (STK32B (human)): 100%
kinase still bound, per cent of control (DSTYK (human)): 71%
kinase still bound, per cent of control (RIPK1 (human)): 96%
